# What was measured:
# [1] = system: Colletotrichum gloeosporioides; assay: Activity against Colletotrichum gloeosporioides in plates; type: cell-based
# Method: (§1) Colby's method is used to determine if synergy exists for a combination of active ingredients. According to Colby, the expected action (E) of active ingredients A+B is: [formula] • where E=expected efficacy, A and B=the efficacy of two active ingredients A and B at a given dose. When the percentage of control observed (O) for the combination is greater than the expected (E) percentage, there is a synergistic effect. The synergism ratio (R) is calculated as the ratio between the expected values and observed values. […] The compositions were diluted with water. Each formulation with active ingredient is diluted with water and biological efficacy trials on target fungi are conducted.
# Venturia inaequalis [2] = assay: Sulphur + Difenoconazole on apple fruits incidence for Venturia inaequalis control; type: in vivo; settings: 4 days after last application
# Method: as §1
# Ramularia collo-cygni = assay: Activity against Ramularia collo-cygni in plates; type: cell-based
# Method: as §1
# Botrytis cinerea = assay: Activity against Botrytis cinerea in plates; type: cell-based
# Method: as §1
# Zymoseptoria tritici = assay: Wheat yield increase when applied for Zymoseptoria tritici control; type: in vivo
# Method: (§2) The experiments were conducted by applying commercially available formulations of Sulphur and other mixture partners, alone or with their tank-mixed compositions. The compositions were diluted with water.
# (§3) Each formulation with active ingredient is diluted with water and biological efficacy trials on target fungi are conducted.
# Alternaria solani = assay: Activity against Alternaria solani in plates; type: cell-based
# Method: as §1
# Venturia inaequalis [3] = assay: Apple fruits classes of damage for Venturia inaequalis control; type: in vivo; settings: 14 days after last application; for Class 1 (%): class 1 = no damage; for Class 2 (%): class 2 = 2-3 spots per fruit; for Class 3 (%): class 3 = more than 3 spots per fruit
# Method: The fungicidal compounds A (sulphur) and B (mix partner) are formulated as equivalent compositions to eliminate the effects of differing formulation inerts on biological activity. Efficacy of the fungicidal compositions is evaluated with reference to a scale of 0% to 100% in comparison with untreated control plots. 0 means no control and 100 means complete control of the target disease.
# as §2, §3
# Tetranychus urticae = assay: Activity of Sulphur + Fluazinam against Tetranychus urticae in plates; type: in vivo
# Method: (§4) Colby's method is used to determine if synergy exists for a combination of active ingredients. According to Colby, the expected action (E) of active ingredients A+B is:
# (§5) [formula] • where E=expected efficacy, A and B=the efficacy of two active ingredients A and B at a given dose.
# (§6) When the percentage of control observed (O) for the combination is greater than the expected (E) percentage, there is a synergistic effect. The synergism ratio (R) is calculated as the ratio between the expected values and observed values.
# (§7) Furthermore, the miticidal and insecticidal efficacy of the compositions are also evaluated with reference to a scale of 0% to 100% in comparison with untreated control plots. 0 means no control and 100 means complete control of the target pest.
# as §2
# (§8) Each formulation with active ingredient is diluted with water and biological efficacy trials on target pest are conducted.
# [4] = system: Trialeurodes vaporariorum; assay: Activity of Sulphur + Fluazinam against Trialeurodes vaporariorum plates; type: in vivo
# Method: as §4, §5, §6, §7, §2, §8
molecule,measurement,setting,value
CC1COC(Cn2cncn2)(c2ccc(Oc3ccc(Cl)cc3)cc2Cl)O1 (centres unmarked) [Difenoconazole],Observed % control (O),[1]; rate 25 g/ha,58.4%
same,Observed % control (O),Venturia inaequalis [2]; rate 37.5 g/ha,67.90%
same,Observed % control (O),Venturia inaequalis [2]; rate 50 g/ha,69.40%
same,Observed % control (O),Ramularia collo-cygni; rate 25 g/ha,73.9%
same,Observed % control (O),Botrytis cinerea; rate 25 g/ha,62.5%
same,Yield increase versus the untreated (%),"Zymoseptoria tritici; untreated = 100, rate 75 g/ha",102.26%
same,Yield increase versus the untreated (%),"Zymoseptoria tritici; untreated = 100, rate 125 g/ha",109.14%
same,Observed % control (O),Alternaria solani; rate 25 g/ha,60.6%
same,Class 1 (%),Venturia inaequalis [3]; rate 37.5 g/ha,92.5%
same,Class 1 (%),Venturia inaequalis [3]; rate 50 g/ha,93.5%
same,Class 2 (%),Venturia inaequalis [3]; rate 37.5 g/ha,5.2%
same,Class 2 (%),Venturia inaequalis [3]; rate 50 g/ha,3.3%
same,Class 3 (%),Venturia inaequalis [3]; rate 37.5 g/ha,2.3%
same,Class 3 (%),Venturia inaequalis [3]; rate 50 g/ha,3.3%
Fluazinam,Observed % control (O),[1]; rate 150 g/ha,60.8%
same,Observed % control (O),Ramularia collo-cygni; rate 150 g/ha,36.3%
same,Observed % control (O),Botrytis cinerea; rate 150 g/ha,64.4%
same,Observed % control (O),Tetranychus urticae; 200 g ai/ha,27.5%
same,Observed % control (O),Tetranychus urticae; 250 g ai/ha,32.5%
same,Observed % control (O),Tetranychus urticae; 300 g ai/ha,32.5%
same,Observed % control (O),Tetranychus urticae; 350 g ai/ha,37.5%
same,Observed % control (O),Alternaria solani; rate 150 g/ha,57.5%
same,Observed % control (O),[4]; 200 g ai/ha,21.7%
same,Observed % control (O),[4]; 250 g ai/ha,23.6%
same,Observed % control (O),[4]; 300 g ai/ha,24.1%
same,Observed % control (O),[4]; 350 g ai/ha,33.6%

# — patent US20260256144A1, “FUNGICIDAL MIXTURE COMPOSITION COMPRISING SULPHUR” (ADAMA MAKHTESHIM LTD., priority 2022, published 2026)
